Source: patent US9637490B2, “Antifungal 5,6-dihydro-4-[(difluoroethyl)phenyl]-4H-pyrrolo[1,2-α][1,4]benzodiazepine and 4-(difluoroethyl)phenyl-6H-pyrrolo[1,2-α][1,4]benzodiazepine derivatives” (Janssen Pharmaceutica NV, priority 2010, dated 2017)
pIC50: −log10 of the molar value. Converted amounts (≈) assume the structure as drawn. Like-named read-outs stand apart in the source and are kept apart here. Each block holds one compound with its values, some of them ahead of it.

What was measured:
[1] = tested on: Rhizomucor miehei IHEM13391; test: Antifungal activity in vitro (resazurin susceptibility screen), Inf. K; assay type: cell-based; conditions: Rhizomucor miehei, IHEM13391, Rhizomucor miehei IHEM13391; 37 °C, 48 hours, resa time 17 hours
How it was run: (§1)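 Each isolate, diluted 1/1000 from cryostock to give 10^3 cfu/well, is exposed to serially diluted compound (max 64 μM) in RPMI-1640 supplemented with glutamine and glucose, MOPS-buffered at pH 7.0. Plates incubate 24 h at 37° C (yeasts) up to ≥1 week at 27° C (dermatophytes), then resazurin fluorescence is scored.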

[2] = tested on: Scedosporium apiospermum IHEM3817; test: Antifungal activity in vitro (resazurin susceptibility screen), Inf. H; assay type: cell-based; conditions: Scedosporium apiospermum, IHEM3817, Scedosporium apiospermum IHEM3817; 37 °C, 48 hours, resa time 17 hours
How it was run: as §1

[3] = tested on: Trichophyton mentagrophytes B70554; test: Antifungal activity in vitro (resazurin susceptibility screen), Inf. G; assay type: cell-based; conditions: Trichophyton mentagrophytes, B70554, Trichophyton mentagrophytes B70554; 27 °C, 7 days, resa time 24 hours
How it was run: as §1

[4] = tested on: Sporothrix schenkii B62482; test: Antifungal activity in vitro (resazurin susceptibility screen), Inf. A; assay type: cell-based; conditions: Sporothrix, B62482, Sporothrix schenkii B62482; 27 °C, 4 days, resa time 24 hours
How it was run: as §1

Microsporum canis B68128 = test: Antifungal activity in vitro (resazurin susceptibility screen), Inf. B; assay type: cell-based; conditions: Microsporum canis, B68128, Microsporum canis B68128; 27 °C, 9 days, resa time 24 hours
How it was run: as §1

[5] = tested on: Trichophyton rubrum B68183; test: Antifungal activity in vitro (resazurin susceptibility screen), Inf. C; assay type: cell-based; conditions: Trichophyton rubrum, B68183, Trichophyton rubrum B68183; 27 °C, 7 days, resa time 24 hours
How it was run: as §1

Rhizopus oryzae IHEM5223 = test: Antifungal activity in vitro (resazurin susceptibility screen), Inf. J; assay type: cell-based; conditions: Rhizopus arrhizus, 37 °C, 24 hours, resa time 6 hours
How it was run: as §1

[6] = In vivo pharmacokinetic determinations (bioavailability) in guinea pigs; conditions: guinea pig
Protocol: (§2) Three animals (mean weight 20±7 g for mice and 275±20 for Guinea pigs) were used per dose route, time point and formulation.
(§3) For the oral (PO) solution formulation, compound was dissolved in a 20% hydroxypropyl-β-cyclodextrin (HP-β-CD) solution at a final concentration of 1 mg/ml. HCl was added to facilitate dissolution. After dissolution, the pH was brought up to 3.7 with NaOH. Mannitol was added to make the solution isotonic. For the PO suspension formulation, compound was suspended in 0.5% methocel at a final concentration of 1 mg/ml. The formulations were stored at room temperature, protected from light and analysed quantitatively with LC-MS/MS on the day of preparation. Stability of the formulations was checked on the day of dosing.
(§4) The animals were dosed orally by gastric intubation at 10 ml/kg to obtain a final dose 10 mg/kg. Three dosed animals were sacrificed for blood sampling at 15 and 30 min, 1, 2, 3, 4, 6, 8 and 24 h after PO dose administration as a solution and at 30 min, 1, 2, 4, 6, 8 and 24 h after PO dose administration as a suspension.
(§5) Blood was collected by multiple sampling from a tail vein into Multivette® 600 K3E tubes (Sarstedt). Samples were placed immediately at approximately 4° C. and plasma was obtained following centrifugation at 4° C. for 10 minutes at approximately 1900×g. All samples were shielded from daylight and stored at ≦−18° C. prior to analysis.
(§6) Plasma samples were analysed for dosed compound using a qualified research LC-MS/MS method. The key analytical performance (linearity, upper and lower limit of quantification, accuracy and precision) of the method was reported together with the plasma concentrations.
(§7) A limited pharmacokinetic analysis was performed using WinNonlin™ Professional (Version 5.2.1). A non-compartmental analysis using the lin/log trapezoidal rule with lin/log interpolation was used for all data.

[7] = tested on: Aspergillus fumigatus B42928; test: Antifungal activity in vitro (resazurin susceptibility screen), Inf. E; assay type: cell-based; conditions: Aspergillus fumigatus, B42928, Aspergillus fumigatus B42928; 27 °C, 48 hours, resa time 17 hours
How it was run: as §1

[8] = tested on: Scedosporium prolificans IHEM21157; test: Antifungal activity in vitro (resazurin susceptibility screen), Inf. I; assay type: cell-based; conditions: Lomentospora prolificans, 37 °C, 48 hours, resa time 17 hours
How it was run: as §1

[9] = tested on: Mucor circinelloides IHEM21105; test: Antifungal activity in vitro (resazurin susceptibility screen), Inf. L; assay type: cell-based; conditions: 27 °C, 48 hours, resa time 17 hours
How it was run: as §1

[10] = tested on: Cryptococcus neoformans B66663; test: Antifungal activity in vitro (resazurin susceptibility screen), Inf. F; assay type: cell-based; conditions: Cryptococcus neoformans, B66663, Cryptococcus neoformans B66663; 37 °C, 24 hours, resa time 4 hours
How it was run: as §1

in vivo = test: in vivo; parameters: species or system mice; conditions: mouse, po
Protocol: as §2, §3, §4, §5, §6, §7

[11] = tested on: Candida parapsilosis B66126; test: Antifungal activity in vitro (resazurin susceptibility screen), Inf. D; assay type: cell-based; conditions: Lodderomyces parapsilosis, B66126, Candida parapsilosis B66126; 37 °C, 24 hours, resa time 4 hours
How it was run: as §1

[12] = tested on: Microsporum canis (strain B68128); test: Test D.4.1: activity against M. canis in guinea-pigs after oral treatment for 7 consecutive days; assay type: in vivo; parameters: key to semi-quantitative lesion score (mean): lesion score 0–3.5 by severity and size of lesion; conditions: oral 10 mg/kg once daily for 7 days
Protocol: The animals used in the tests described below were female Guinea pigs (Duncan-Hartley, Charles River, 200 g). These animals were kept in groups of 2 or 3 in cages of 56×33×20 cm^3. Food pellets (Carfil Quality) and water were available ad libitum in addition to a small daily amount of hay. Standard husbandry conditions were adopted: room temperature: 22° C., humidity level: 60% and a day-night cycle of 12 h.
For the preparation of inoculums, Microsporum canis (strain B68128) was grown on Sabouraud Dextrose Agar (SDA) plates for at least one week (7-10 days) before infection (27° C.). On the day of infection, spores were harvested by adding 4-5 ml sterile water on the plate and suspending the infectious material with a bend Pasteur pipette. From the recollected fluid, 10 μl was added to a KOVA counting chamber for determination of the number of spores in 1 square (average of several squares). If needed, additional dilutions (10× or 100×) were prepared. The average number of spores in one square×dilution×90.000=cfu/ml. An inoculum of 1×10^7 cfu/ml was prepared in a honey-water mixture (50%-50%).
In the tests described below, semi-quantitative lesion scores were given based on different clinical parameters. Scores between 0 and 3.5 were assigned based on the severity and size of the lesion. The criteria are listed in detail in Table 6.
The dorsum of the guinea pigs was shaved and further depilated for 3 minutes with Veet® creme before scarification with a steel brush. An inoculum of 10^6 cfu in 150 μl (75 mQ+75 μl honey) was applied to the wound using a micropipette with disposable tips. The animal was kept immobilized until the inoculum had completely dried. […]
vehicle: methocel 0.5%, Tween 80® (polysorbate 80), demineralised water reference compound: itraconazole at 6.25 mg/ml test compounds: prepared at 25 mg/ml, subsequently further diluted
Oral treatment (gavage 0.16 ml/100 g once daily) was started about 2 hours before infection and continued once daily for 7 consecutive days. The animals were weighed after 3 days of treatment to adjust for the dose.
Developments of lesions were evaluated following the semi-quantitative lesion scoring system (see Table 6) on days 3, 5, 7, 10, 12, 14, 17 and 20. The results are show in Table 7 (“DPI” means days post infection). Reported values in Table 7 are mean values.

[13] = Solubility in buffer systems A-G; assay type: physicochemical; conditions: thermodynamic from solid
Protocol: A magnetic stirring bar was added to the mixtures. […] If the compound was dissolved, the result was reported (twice the weighed amount of compound/ml). If the compound was not dissolved, 0.5 ml of extra solvent was added to the suspension. […] If the compound was dissolved, the result was reported (weighed amount of compound/ml). If the compound was not dissolved, 1 ml of extra solvent is pipetted into the suspension. The mixtures were shaken (Edmund Buhler SM25 175 SPM) at ambient temperature overnight and inspected afterwards. If the compound was dissolved, the result was reported (half the weighed amount of compound/ml). If the compound was not dissolved, the suspension was filtered over a filter disc. An aliquot of the filtrate was diluted with an appropriate solvent (0.1 N HCl/acetonitrile 1/1) and submitted for concentration measurement (mg/ml) using a generic UPLC method.

[14] = pH 4, aqueous with cosolvent or surfactant or cyclodextrin, buffer pH 4, containing 10% (w/v) of HPBCD, read-out: Solubility, buffer system C
[15] = pH 7.4, aqueous with cosolvent or surfactant or cyclodextrin, buffer pH 7.4, containing 10% (w/v) of HPBCD, read-out: Solubility, buffer system F
[16] = pH 7.4, aqueous with cosolvent or surfactant or cyclodextrin, buffer pH 7.4, containing 20% (w/v) of HPBCD, read-out: Solubility, buffer system G

pIC50 [1]: < 4.19
pIC50 [2]: 5.02
pIC50 [3]: 4.89
pIC50 [4]: 4.96
pIC50 (Microsporum canis B68128): 5.40
pIC50 [5]: 6.00
pIC50 (Rhizopus oryzae IHEM5223): < 4.19
pIC50 [7]: 5.10
pIC50 [8]: 5.22
pIC50 [9]: < 4.19
pIC50 [10]: 6.06
bioavailability (in vivo): 100%
pIC50 [11]: < 4.19
Compound: CC(F)(F)c1ccc(C2=NCc3c(Cl)cc(Cl)cc3-n3cccc32)cc1 [Compound 9, 7,9-dichloro-4-[4-(1,1-difluoroethyl)phenyl]-6H-pyrrolo[1,2-a][1,4]benzodiazepine]
Bioavailability in guinea pigs (result in words) [6]: Bioavailability in guinea pigs: not soluble

bioavailability ([6]; po, 10 mg/kg): 14%
bioavailability (in vivo; 10 mg/kg): 19%
Compound: CN(C/C=C/C#CC(C)(C)C)Cc1cccc2ccccc12 [Terbinafine, reference compound]
semi-quantitative lesion score (mean) ([12]; 3 DPI): 0
semi-quantitative lesion score (mean) ([12]; 5 DPI): 0
semi-quantitative lesion score (mean) ([12]; 7 DPI): 0.08
semi-quantitative lesion score (mean) ([12]; 10 DPI): 0.33
semi-quantitative lesion score (mean) ([12]; 12 DPI): 0.80
semi-quantitative lesion score (mean) ([12]; 14 DPI): 0.75
semi-quantitative lesion score (mean) ([12]; 17 DPI): 0.50
semi-quantitative lesion score (mean) ([12]; 20 DPI): 0.42

solubility [13, 14]: 1230 µg/mL (≈ 3440 µM)
solubility [13, 15]: 191 µg/mL (≈ 535 µM)
solubility [13, 16]: 603 µg/mL (≈ 1690 µM)
solubility ([13]; phosphate-citrate (McIlvaine) buffer pH 4, pH 4, aqueous buffer, buffer pH 4, ambient temperature, read-out: Solubility, buffer system B): 87 µg/mL (≈ 244 µM)
solubility ([13]; phosphate-citrate (McIlvaine) buffer pH 7.4, pH 7.4, aqueous buffer, buffer pH 7.4, ambient temperature, read-out: Solubility, buffer system E): < 1 µg/mL
Compound: CC(F)(F)c1ccc(C2=NCc3ccc(Cl)cc3-n3cccc32)cc1 [drawing 30]

Further lines, the compound ahead of its results:

Compound: CC(F)(F)c1ccc(C2=NCc3ccc(Cl)cc3-n3cccc32)cc1 [Compound 17, 9-chloro-4-[4-(1,1-difluoroethyl)phenyl]-6H-pyrrolo[1,2-a][1,4]benzodiazepine]
pIC50 [1]: < 4.19
pIC50 [2]: < 4.19
pIC50 [3]: 5.79
pIC50 [4]: 5.25
pIC50 (Microsporum canis B68128): 5.58
pIC50 [5]: 6.34
pIC50 (Rhizopus oryzae IHEM5223): 5.08
bioavailability ([6]; po, 10 mg/kg): 70%
pIC50 [7]: 6.26
pIC50 [8]: 6.12
pIC50 [9]: < 4.19
pIC50 [10]: 6.49
pIC50 [11]: 5.61
melting point: 115.3 °C (dec.)

Compound: CCc1ccc(C2=NCc3c(Cl)cccc3-n3cccc32)cc1 [Compound 22 of WO02/34752, reference compound]
bioavailability ([6]; po): 2.7%
bioavailability (in vivo; 10 mg/kg): 11%

Compound: CCc1ccc(C2=NCc3ccc(Cl)cc3-n3cccc32)cc1 [Compound 23 of WO02/34752, reference compound]
bioavailability ([6]; PO 40 mg/kg, IV 2.5 mg/kg, read-out: Bioavailability in guinea pigs): 7%

Compound: CCc1ccc(C2=NCc3ccc(Cl)cc3-n3cccc32)cc1 [drawing 29]
solubility ([13]; pH 4, aqueous buffer, buffer pH 4, ambient temperature, read-out: Solubility, buffer system B): < 1 µg/mL
solubility [13, 14]: 48 µg/mL (≈ 150 µM)
solubility ([13]; pH 4, aqueous with cosolvent or surfactant or cyclodextrin, buffer pH 4, containing 20% (w/v) of HPBCD, read-out: Solubility, buffer system D): 1490 µg/mL (≈ 4640 µM)
solubility ([13]; pH 7.4, aqueous buffer, buffer pH 7.4, ambient temperature, read-out: Solubility, buffer system E): < 1 µg/mL
solubility [13, 15]: 35 µg/mL (≈ 109 µM)
solubility [13, 16]: 110 µg/mL (≈ 343 µM)
solubility ([13]; simulated gastric fluid, 0.01 N HCl, ambient temperature, read-out: Solubility, buffer system A): 1880 µg/mL (≈ 5850 µM)
